The record followed here is patent US9522911B2, “Crystalline forms of tricyclic compound acid salt or hydrate thereof, and method for making thereof” (Jeil Pharmaceutical Co., Ltd., priority 2012, dated 2016).

The nature of series [1]: Stability: moisture content with respect to time in thermo-hygrostat (Karl Fisher). Particulars: 25° C. and 60% RH, opened Petri dish. The format is physicochemical. The protocol: To compare the stability of 10-ethoxy-8-(morpholinomethyl)-1,2,3,4-tetrahydrobenzo[h][1,6]naphthyridine-5(6H)-on dichloride dihydrate prepared in Example 1 and 10-ethoxy-8-(morpholinomethyl)-1,2,3,4-tetrahydrobenzo[h][1,6]naphthyridine-5(6H)-on dichloride anhydride prepared in Comparative Example 1, the following experiment was performed.
3.0 g of each of the compounds was put in a Petri dish, and the Petri dish was left in a thermo-hygrostat maintaining 25° C. and 60% RH with an opened state. The moisture content with respect to time was measured using a Karl Fisher apparatus and recorded. By measuring the change of the moisture content with respect to time under the above-described conditions, the stability of the dihydrate and that of the anhydride were compared. The results are illustrated in the following Table 1 and FIG. 1.

The nature of series [2]: Stability of crystalline vs amorphous compound by change of XRD diffraction pattern (with moisture content). The format is physicochemical. The conditions noted are these: for Change of XRD diffraction pattern with respect to time (in words): X-ray diffraction analysis. The protocol: For comparing the stability of the crystalline compound of Example 1 according to the present invention and the amorphous compound of Comparative Example 2, the following experiment was performed.
The stability of each of the crystalline compound of Example 1 according to the present invention and the amorphous compound of Comparative Example 2 was measured by measuring the change of a diffraction pattern through X-ray diffraction analysis (XRD).
For the amorphous compound of Comparative Example 2, accurate and specific XRD pattern of the amorphous type was not shown, however amorphous 10-ethoxy-8-(morpholinomethyl)-1,2,3,4-tetrahydrobenzo[h][1,6]naphthyridine-5(6H)-on dichloride obtained after freeze drying absorbs surrounding moisture during performing the XRD, thereby increasing the crystallinity and showing XRD peaks.
Meanwhile, the moisture content of the compound of Comparative Example 2 was 0.4% immediately after drying, and was increased to 5.2% after measuring XRD.

Take `CCOc1cc(CN2CCOCC2)cc2[nH]c(=O)c3c(c12)NCCC3` [Comparative Example 1, 10-ethoxy-8-(morpholinomethyl)-1,2,3,4-tetrahydrobenzo[h][1,6]naphthyridine-5(6H)-on dichloride anhydride]: the “Change of the moisture content with respect to time (in words)” value in series [1] is reported as “increased within 30 minutes from the initial state”. For the same molecule, the Moisture content in series [1] (30 min) was found to be 9.70%; in series [1] (1 h), 10.18%; in series [1] (2 h) it was 9.79%; in series [1] (1 day) it was 9.72%; in series [1] (2 days) it was 9.86%; in series [1] (initial state), 0.40%.
`CCOc1cc(CN2CCOCC2)cc2[nH]c(=O)c3c(c12)NCCC3.Cl.Cl` [Comparative Example 2, 10-ethoxy-8-(morpholinomethyl)-1,2,3,4-tetrahydrobenzo[h][1,6]naphthyridine-5(6H)-on dichloride]: in series [2], the “Change of XRD diffraction pattern with respect to time (in words)” value is listed as “crystallinity thereof is increased”. The Moisture content in series [2] (after measuring XRD) turned out to be 5.2%; in series [2] (immediately after drying) it was 0.4%.
In the case of `CCOc1cc(CN2CCOCC2)cc2[nH]c(=O)c3c(c12)NCCC3` [Example 1, 10-ethoxy-8-(morpholinomethyl)-1,2,3,4-tetrahydrobenzo[h][1,6]naphthyridine-5(6H)-on dichloride dihydrate], the “Change of XRD diffraction pattern with respect to time (in words)” value in series [2] is “constant data without change of the XRD diffraction pattern”. For the same molecule, the “Change of the moisture content with respect to time (in words)” value in series [1] (dihydrate) is given as “constant”. The Moisture content in series [1] (30 min, dihydrate) is 8.75%; in series [1] (1 h, dihydrate), 8.80%; in series [1] (2 h, dihydrate) it was 8.79%; in series [1] (1 day, dihydrate), 8.77%; in series [1] (2 days, dihydrate) it was 8.81%; in series [1] (initial state, dihydrate), 8.77%.
